Test results from ChEMBL document CHEMBL3414490 (Eur J Med Chem, 2015).

Legend:
[1] = target: Prothrombin (Homo sapiens, UniProt P00734); assay: Inhibition of human thrombin using Ac-FVR-AMC as substrate incubated for 10 mins prior to substrate addition measured for 10 min by fluorescence assay
[2] = tested on: Rattus norvegicus; assay: Inhibition of thrombin-induced platelet aggregation in Sprague-Dawley rat at 3 mg/ml administered for 4 days relative to control; type: functional
[3] = tested on: Rattus norvegicus; assay: Anticoagulant activity in Sprague-Dawley rat plasma assessed as prothrombin time at 3 mg/ml administered for 4 days; type: functional
[4] = tested on: Rattus norvegicus; assay: Anticoagulant activity in Sprague-Dawley rat plasma assessed as activated partial […] time at 3 mg/ml administered for 4 days; type: functional
[5] = tested on: Plasma; assay: Anticoagulant activity in Sprague-Dawley rat plasma assessed as thrombin time at 3 mg/ml administered for 4 days; type: functional
[6] = tested on: Rattus norvegicus; assay: Anticoagulant activity in Sprague-Dawley rat plasma assessed as fibrinogen level at 3 mg/ml administered for 4 days; type: functional
[7] = tested on: Rattus norvegicus; assay: Inhibition of arterial/venous thromboembolic weight in Sprague-Dawley rat at 3 mg/ml administered for 4 days relative to control; type: functional

SMILES	IC50 [1] [nM]	also measured
Cc1ccccc1N(CCC(=O)O)C(=O)c1ccc2c(c1)nc(CNc1ccc(C(=N)N)cc1F)n2C	6.13	–
Cn1c(CNc2ccc(C(=N)N)cc2F)nc2cc(C(=O)N(CCC(=O)O)c3ccccc3F)ccc21	4.93	–
COc1cccc(N(CCC(=O)O)C(=O)c2ccc3c(c2)nc(CNc2ccc(C(=N)N)cc2F)n3C)c1	4.84	–
COc1ccc(N(CCC(=O)O)C(=O)c2ccc3c(c2)nc(CNc2ccc(C(=N)N)cc2F)n3C)cc1	16.3	–
Cn1c(CNc2ccc(C(=N)N)cc2F)nc2cc(C(=O)N(CCC(=O)O)c3ccccn3)ccc21	3.49	–
Cc1ccc(N(CCC(=O)O)C(=O)c2ccc3c(c2)nc(CNc2ccc(C(=N)N)cc2F)n3C)nc1	24	–
CCn1c(CNc2ccc(C(=N)N)cc2F)nc2cc(C(=O)N(CCC(=O)O)c3ccccc3)ccc21	5.63	–
CCn1c(CNc2ccc(C(=N)N)cc2F)nc2cc(C(=O)N(CCC(=O)O)c3ccccc3C)ccc21	7.26	–
CCn1c(CNc2ccc(C(=N)N)cc2F)nc2cc(C(=O)N(CCC(=O)O)c3ccccc3F)ccc21	3.71	–
CCn1c(CNc2ccc(C(=N)N)cc2F)nc2cc(C(=O)N(CCC(=O)O)c3cccc(OC)c3)ccc21	8.4	–
CCn1c(CNc2ccc(C(=N)N)cc2F)nc2cc(C(=O)N(CCC(=O)O)c3ccc(OC)cc3)ccc21	23.3	–
Cn1c(CNc2ccc(C(=N)N)cc2)nc2cc(C(=O)N(CCC(=O)O)c3ccccc3F)ccc21	3.23	–
CCn1c(CNc2ccc(C(=N)N)cc2F)nc2cc(C(=O)N(CCC(=O)O)c3ccccn3)ccc21	3.39	–
CCCCCCOC(=O)/N=C(/N)c1ccc(NCc2nc3cc(C(=O)N(CCC(=O)OCC)c4ccccc4F)ccc3n2C)cc1	–	inhibition (INH) [2]: 10.4%; PT [3]: 11.82 s; APTT [4]: 24.33 s; TT [5]: 180 s; Activity [6]: 1.853 g/L; inhibition (INH) [7]: 37%
CCCCCCOC(=O)/N=C(/N)c1ccc(NCc2nc3cc(C(=O)N(CCC(=O)OCC)c4ccccn4)ccc3n2C)c(F)c1	–	inhibition (INH) [2]: 53.8%; PT [3]: 12.28 s; APTT [4]: 25.43 s; TT [5]: 137.3 s; Activity [6]: 1.939 g/L; inhibition (INH) [7]: 73%
CCCCCCOC(=O)NC(=N)c1ccc(NCc2nc3cc(C(=O)N(CCC(=O)OCC)c4ccccn4)ccc3n2C)cc1 [DABIGATRAN ETEXILATE]	–	inhibition (INH) [2]: 92.9%; PT [3]: 57.2 s; APTT [4]: 76.57 s; TT [5]: 180 s; Activity [6]: 1.561 g/L; inhibition (INH) [7]: 76%

Continued by falling IC50 [1], values first:

IC50 [1] [nM]	SMILES	also measured
21.6	CCn1c(CNc2ccc(C(=N)N)cc2F)nc2cc(C(=O)N(CCC(=O)O)c3ccccc3OC)ccc21	–
19.2	CCn1c(CNc2ccc(C(=N)N)cc2F)nc2cc(C(=O)N(CCC(=O)O)c3ccc(C)cn3)ccc21	–
13.6	CCn1c(CNc2ccc(C(=N)N)cc2F)nc2cc(C(=O)N(CCC(=O)O)c3ccc(Cl)cc3)ccc21	–
5.86	Cn1c(CNc2ccc(C(=N)N)cc2F)nc2cc(C(=O)N(CCC(=O)O)c3ccccc3)ccc21	–
5.43	Cn1c(CNc2ccc(C(=N)N)cc2F)nc2cc(C(=O)N(CCC(=O)O)c3ccc(F)cc3)ccc21	–
4.92	CCn1c(CNc2ccc(C(=N)N)cc2F)nc2cc(C(=O)N(CCC(=O)O)c3cccc(F)c3)ccc21	–
4.9	CCn1c(CNc2ccc(C(=N)N)cc2F)nc2cc(C(=O)N(CCC(=O)O)c3ccc(F)cc3)ccc21	–
4.54	Cn1c(CNc2ccc(C(=N)N)cc2F)nc2cc(C(=O)N(CCC(=O)O)c3cccc(F)c3)ccc21	–
